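Each compound was tested at five concentrations against cells in 96-well plates for 48 hours. The concentration for 50% growth inhibition is given as GI50.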 Activity calls are given as the source filed them. Cut-off read from the data, not from the text of the source: active = GI50 up to about 1.1 µM and inactive = higher.
What was measured:
Assay in all cases: NCI anticancer screen, dose series, 48 h
[1] = tested on: A498
[2] = tested on: A549
[3] = tested on: ACHN
[4] = tested on: CAKI-1
[5] = tested on: COLO 205
[6] = tested on: HCC 2998
[7] = tested on: HCT-116
[8] = tested on: HT-29
[9] = tested on: Hs-578T
[10] = tested on: K562
[11] = tested on: MCF7
[12] = tested on: NCI-H460
[13] = tested on: NCI-H522
[14] = tested on: OVCAR-3
[15] = tested on: OVCAR-4
[16] = tested on: PC-3
[17] = tested on: SF-539
[18] = tested on: SK-MEL-2
[19] = tested on: SK-MEL-5
[20] = tested on: SNB-19

Row | Compound | GI50 [1] | GI50 [2] | GI50 [3] | GI50 [4] | GI50 [5] | GI50 [6] | GI50 [7] | GI50 [8] | GI50 [9] | GI50 [10] | GI50 [11] | GI50 [12] | GI50 [13] | GI50 [14] | GI50 [15] | GI50 [16] | GI50 [17] | GI50 [18] | GI50 [19] | GI50 [20]
1 | COc1ccc2nc3cc([N+](=O)[O-])ccc3c(Nc3ccc(S(=O)(=O)N=C(N)N)cc3)c2c1 | > 100 µM (inactive) | 47 µM (inactive) | 40.9 µM (inactive) | 23.3 µM (inactive) | 23.1 µM (inactive) | 19 µM (inactive) | 11.9 µM (inactive) | 22.1 µM (inactive) | 30.9 µM (inactive) | 18.3 µM (inactive) | 9.55 µM (inactive) | 9.82 µM (inactive) | 18.8 µM (inactive) | 16.5 µM (inactive) | 28.2 µM (inactive) | 12 µM (inactive) | 24.1 µM (inactive) | 18.5 µM (inactive) | 15.7 µM (inactive) | 43.6 µM (inactive)
2 | Cc1noc(NS(=O)(=O)c2ccc(NC(=O)c3ccc4nc5ccccc5c(Nc5ccc(S(=O)(=O)Nc6onc(C)c6C)cc5)c4c3)cc2)c1C | > 100 µM (inactive) | > 100 µM (inactive) | > 100 µM (inactive) | > 100 µM (inactive) | > 100 µM (inactive) | > 100 µM (inactive) | > 100 µM (inactive) | 73.3 µM (inactive) | > 100 µM (inactive) | 25.5 µM (inactive) | 45.6 µM (inactive) | 67.3 µM (inactive) | 52.1 µM (inactive) | 70.3 µM (inactive) | > 100 µM (inactive) | > 100 µM (inactive) | > 100 µM (inactive) | > 100 µM (inactive) | 49.4 µM (inactive) | > 100 µM (inactive)
3 | Cc1cc2c(cc1C)C(=O)c1ncccc1C2=O | 50.2 µM (inactive) | 22.7 µM (inactive) | 37.2 µM (inactive) | 36.6 µM (inactive) | 18.3 µM (inactive) | 33.4 µM (inactive) | 19.9 µM (inactive) | 23.3 µM (inactive) | > 100 µM (inactive) | 17.5 µM (inactive) | 20.2 µM (inactive) | 7.91 µM (inactive) | 16.7 µM (inactive) | 3.06 µM (inactive) | 21.9 µM (inactive) | 29 µM (inactive) | 26.5 µM (inactive) | 48.5 µM (inactive) | 7 µM (inactive) | 34.8 µM (inactive)
4 | Cc1nc(O)nc2nc3cc(Cl)cc(Cl)c3c(NC(C)(CO)CO)c12 | 13.6 µM (inactive) | > 100 µM (inactive) | 50.5 µM (inactive) | 94.6 µM (inactive) | > 100 µM (inactive) | > 100 µM (inactive) | 34 µM (inactive) | > 100 µM (inactive) | 31.6 µM (inactive) | > 100 µM (inactive) | 1.55 µM (inactive) | > 100 µM (inactive) | > 100 µM (inactive) | > 100 µM (inactive) | > 100 µM (inactive) | > 100 µM (inactive) | > 100 µM (inactive) | 29.1 µM (inactive) | > 100 µM (inactive) | 21.4 µM (inactive)
5 | CCc1ccccc1N1CCN(C(=O)c2cc(OC)c(OC)c(OC)c2)CC1 | 0.0303 µM (active) | 0.0452 µM (active) | < 0.0137 µM (active) | < 0.0205 µM (active) | 0.0219 µM (active) | 0.0585 µM (active) | 0.042 µM (active) | 0.0225 µM (active) | 0.0144 µM (active) | 0.0235 µM (active) | 0.0178 µM (active) | 0.0307 µM (active) | 0.0134 µM (active) | 0.0143 µM (active) | 1.15 µM (inactive) | < 0.0144 µM (active) | 0.0212 µM (active) | 0.0247 µM (active) | 0.0154 µM (active) | 0.067 µM (active)
6 | Nc1c2c(nc3ccccc13)-c1ccccc1CCC2 | 8.22 µM (inactive) | 13.8 µM (inactive) | 13.7 µM (inactive) | 14.4 µM (inactive) | 14.1 µM (inactive) | 3.08 µM (inactive) | 7.16 µM (inactive) | 10.3 µM (inactive) | 20.2 µM (inactive) | 6.65 µM (inactive) | 13.6 µM (inactive) | 4.89 µM (inactive) | 15.6 µM (inactive) | 14.1 µM (inactive) | 14.4 µM (inactive) | 15.1 µM (inactive) | 13.4 µM (inactive) | 15 µM (inactive) | 7.91 µM (inactive) | 17.7 µM (inactive)
